Results published in patent US20170190705A1, “Compositions and Methods for Inhibiting BMP” (THE BRIGHAM AND WOMAN'S HOSPITAL, INC., priority 2014, published 2017).

Legend:
Assay type in all cases: biochemical
[1] = biological target: MARK1 (Homo sapiens, UniProt Q9P0L2); assay: Kinome profiling MARK1; conditions: read-out: Inhibitory activity MARK1; for inhibition at 0.1 µM: 100 nM
Protocol: (§1) . The kinome-wide selectivity was determined following the methods previously reported by Mohedas et al., ACS Chem Biol 2013, 8, 1291-1302 and Sanvitale et al., PLoS One 2013, 8, e62721.

[2] = biological target: BTK (Homo sapiens, UniProt Q06187); assay: Kinome profiling BTK; conditions: read-out: Inhibitory activity BTK; for inhibition at 0.1 µM: 100 nM
Protocol: as §1

[3] = biological target: T1, EPHB3 (Homo sapiens, UniProt P54753); assay: Kinome profiling EPHB3; conditions: read-out: Inhibitory activity EPHB3; for inhibition at 0.1 µM: 100 nM
T1 sequence (P54753 34-998): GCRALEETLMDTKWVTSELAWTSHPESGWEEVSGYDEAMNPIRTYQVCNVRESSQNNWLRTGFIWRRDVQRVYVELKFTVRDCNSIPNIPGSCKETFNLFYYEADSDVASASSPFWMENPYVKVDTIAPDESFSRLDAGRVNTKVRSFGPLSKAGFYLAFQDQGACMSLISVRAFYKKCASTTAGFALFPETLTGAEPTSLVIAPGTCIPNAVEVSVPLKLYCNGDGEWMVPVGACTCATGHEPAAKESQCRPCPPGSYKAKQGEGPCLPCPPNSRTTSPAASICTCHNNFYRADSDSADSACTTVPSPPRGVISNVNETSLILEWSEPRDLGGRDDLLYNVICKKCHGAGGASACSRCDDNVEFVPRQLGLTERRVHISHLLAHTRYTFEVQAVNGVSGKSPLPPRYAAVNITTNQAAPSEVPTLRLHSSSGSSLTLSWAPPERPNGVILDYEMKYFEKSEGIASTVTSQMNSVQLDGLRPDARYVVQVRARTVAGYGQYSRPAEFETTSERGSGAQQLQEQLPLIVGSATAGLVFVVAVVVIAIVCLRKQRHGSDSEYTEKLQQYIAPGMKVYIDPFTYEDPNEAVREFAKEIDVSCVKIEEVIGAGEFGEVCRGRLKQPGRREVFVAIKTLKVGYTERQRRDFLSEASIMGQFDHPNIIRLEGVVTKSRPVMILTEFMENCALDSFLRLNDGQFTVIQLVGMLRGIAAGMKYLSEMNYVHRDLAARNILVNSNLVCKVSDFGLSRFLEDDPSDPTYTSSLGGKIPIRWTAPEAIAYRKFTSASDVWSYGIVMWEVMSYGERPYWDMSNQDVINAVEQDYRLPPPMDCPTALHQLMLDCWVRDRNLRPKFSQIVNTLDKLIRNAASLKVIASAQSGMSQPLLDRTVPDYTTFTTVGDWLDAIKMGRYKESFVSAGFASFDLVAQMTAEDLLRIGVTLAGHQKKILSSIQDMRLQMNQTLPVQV
Protocol: as §1

[4] = biological target: FGFR3 (Homo sapiens, UniProt P22607); assay: Kinome profiling FGFR3; conditions: read-out: Inhibitory activity FGFR3; for inhibition at 0.1 µM: 100 nM
Protocol: as §1

[5] = biological target: DYRK1A (Homo sapiens, UniProt Q13627); assay: Kinome profiling DYRK1A; conditions: read-out: Inhibitory activity DYRK1A; for inhibition at 0.1 µM: 100 nM
Protocol: as §1

[6] = biological target: FGFR2 (Homo sapiens, UniProt P21802); assay: Kinome profiling FGFR2; conditions: read-out: Inhibitory activity FGFR2; for inhibition at 0.1 µM: 100 nM
Protocol: as §1

[7] = biological target: CDK4/cyclinD (Homo sapiens, UniProt P11802); assay: Kinome profiling CDK4/cyclinD; conditions: read-out: Inhibitory activity CDK4/cyclinD; for inhibition at 0.1 µM: 100 nM
Protocol: as §1

[8] = biological target: TRKC (Homo sapiens, UniProt Q16288); assay: Kinome profiling TRKC; conditions: read-out: Inhibitory activity TRKC; for inhibition at 0.1 µM: 100 nM
Protocol: as §1

[9] = biological target: RSK4 (Homo sapiens, UniProt Q9UK32); assay: Kinome profiling RSK4; conditions: read-out: Inhibitory activity RSK4; for inhibition at 0.1 µM: 100 nM
Protocol: as §1

[10] = biological target: T2, ZAP70 (Homo sapiens, UniProt P43403); assay: Kinome profiling ZAP70; conditions: read-out: Inhibitory activity ZAP70; for inhibition at 0.1 µM: 100 nM
T2 sequence (P43403 1-619): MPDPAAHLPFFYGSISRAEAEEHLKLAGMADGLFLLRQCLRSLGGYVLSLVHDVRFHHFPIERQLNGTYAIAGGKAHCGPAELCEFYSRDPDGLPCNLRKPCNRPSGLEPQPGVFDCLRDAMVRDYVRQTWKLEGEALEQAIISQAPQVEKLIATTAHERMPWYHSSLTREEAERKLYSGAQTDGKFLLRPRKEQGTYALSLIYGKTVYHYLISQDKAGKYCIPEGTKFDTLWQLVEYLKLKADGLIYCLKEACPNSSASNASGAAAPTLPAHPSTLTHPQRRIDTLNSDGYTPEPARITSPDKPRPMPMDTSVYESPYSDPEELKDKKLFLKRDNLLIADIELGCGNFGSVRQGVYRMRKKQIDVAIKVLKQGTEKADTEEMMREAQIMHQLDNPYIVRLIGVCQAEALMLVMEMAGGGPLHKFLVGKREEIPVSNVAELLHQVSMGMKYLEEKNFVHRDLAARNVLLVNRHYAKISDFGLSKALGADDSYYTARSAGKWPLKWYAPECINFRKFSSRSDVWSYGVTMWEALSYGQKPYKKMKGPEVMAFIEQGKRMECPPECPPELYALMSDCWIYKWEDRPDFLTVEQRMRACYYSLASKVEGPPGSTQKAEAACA
Protocol: as §1

[11] = biological target: MAPK3 (Homo sapiens, UniProt P27361); assay: Kinome profiling MAPK3; conditions: read-out: Inhibitory activity MAPK3; for inhibition at 0.1 µM: 100 nM
Protocol: as §1

[12] = biological target: SRPK1 (Homo sapiens, UniProt Q96SB4); assay: Kinome profiling SRPK1; conditions: read-out: Inhibitory activity SRPK1; for inhibition at 0.1 µM: 100 nM
Protocol: as §1

[13] = biological target: PIM-1 (Homo sapiens, UniProt P11309); assay: Kinome profiling PIM-1; conditions: read-out: Inhibitory activity PIM-1; for inhibition at 0.1 µM: 100 nM
Protocol: as §1

RSK4, sequence (Q9UK32 whole entry): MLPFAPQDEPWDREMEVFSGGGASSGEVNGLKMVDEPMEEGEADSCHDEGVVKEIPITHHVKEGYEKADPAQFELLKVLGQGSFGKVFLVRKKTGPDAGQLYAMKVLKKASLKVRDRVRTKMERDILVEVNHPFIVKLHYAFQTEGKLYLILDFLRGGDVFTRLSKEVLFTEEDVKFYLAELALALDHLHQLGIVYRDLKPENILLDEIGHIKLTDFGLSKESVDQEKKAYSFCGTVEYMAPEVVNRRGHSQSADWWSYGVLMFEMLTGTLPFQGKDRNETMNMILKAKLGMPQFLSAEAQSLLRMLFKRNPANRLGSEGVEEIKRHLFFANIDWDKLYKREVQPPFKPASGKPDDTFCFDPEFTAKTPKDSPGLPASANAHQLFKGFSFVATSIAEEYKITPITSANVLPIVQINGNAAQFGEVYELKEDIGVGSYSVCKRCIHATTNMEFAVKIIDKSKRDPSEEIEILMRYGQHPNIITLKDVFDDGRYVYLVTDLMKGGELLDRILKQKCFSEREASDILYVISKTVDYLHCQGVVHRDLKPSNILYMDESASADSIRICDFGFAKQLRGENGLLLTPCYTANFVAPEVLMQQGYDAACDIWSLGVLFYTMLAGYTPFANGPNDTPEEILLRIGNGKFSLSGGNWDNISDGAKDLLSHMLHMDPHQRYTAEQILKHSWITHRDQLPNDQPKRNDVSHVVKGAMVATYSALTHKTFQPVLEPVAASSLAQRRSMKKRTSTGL
MAPK3, sequence (P27361 whole entry): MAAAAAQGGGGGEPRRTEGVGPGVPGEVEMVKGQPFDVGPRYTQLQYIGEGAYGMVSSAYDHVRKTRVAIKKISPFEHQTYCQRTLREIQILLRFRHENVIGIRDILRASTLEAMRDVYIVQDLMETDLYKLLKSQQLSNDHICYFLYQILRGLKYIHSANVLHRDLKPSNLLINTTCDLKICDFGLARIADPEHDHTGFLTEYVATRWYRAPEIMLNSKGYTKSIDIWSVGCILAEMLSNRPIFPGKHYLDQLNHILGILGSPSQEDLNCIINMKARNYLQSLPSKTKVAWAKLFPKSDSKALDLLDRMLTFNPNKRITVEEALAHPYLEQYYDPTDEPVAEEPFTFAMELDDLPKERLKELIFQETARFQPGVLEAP
FGFR2, sequence (P21802 22-821): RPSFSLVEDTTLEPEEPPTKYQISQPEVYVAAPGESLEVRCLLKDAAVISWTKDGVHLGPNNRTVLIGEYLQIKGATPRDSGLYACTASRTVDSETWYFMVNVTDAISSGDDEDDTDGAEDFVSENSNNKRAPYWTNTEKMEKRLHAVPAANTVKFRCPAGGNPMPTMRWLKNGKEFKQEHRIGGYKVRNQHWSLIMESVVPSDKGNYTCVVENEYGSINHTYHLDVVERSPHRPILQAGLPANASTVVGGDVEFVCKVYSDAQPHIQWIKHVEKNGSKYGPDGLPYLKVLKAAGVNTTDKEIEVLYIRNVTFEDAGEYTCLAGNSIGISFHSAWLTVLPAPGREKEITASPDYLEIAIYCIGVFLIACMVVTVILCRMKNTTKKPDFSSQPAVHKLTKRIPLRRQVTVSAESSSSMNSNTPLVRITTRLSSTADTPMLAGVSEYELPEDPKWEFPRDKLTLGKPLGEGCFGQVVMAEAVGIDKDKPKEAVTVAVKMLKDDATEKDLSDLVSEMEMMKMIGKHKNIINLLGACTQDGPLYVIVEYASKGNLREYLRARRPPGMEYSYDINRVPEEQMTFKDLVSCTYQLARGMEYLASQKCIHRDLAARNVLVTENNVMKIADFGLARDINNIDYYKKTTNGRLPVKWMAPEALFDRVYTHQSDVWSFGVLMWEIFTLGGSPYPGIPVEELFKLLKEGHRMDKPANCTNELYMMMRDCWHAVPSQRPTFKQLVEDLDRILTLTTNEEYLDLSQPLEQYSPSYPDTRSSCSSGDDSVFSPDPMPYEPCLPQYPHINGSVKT
MARK1, sequence (Q9P0L2 whole entry): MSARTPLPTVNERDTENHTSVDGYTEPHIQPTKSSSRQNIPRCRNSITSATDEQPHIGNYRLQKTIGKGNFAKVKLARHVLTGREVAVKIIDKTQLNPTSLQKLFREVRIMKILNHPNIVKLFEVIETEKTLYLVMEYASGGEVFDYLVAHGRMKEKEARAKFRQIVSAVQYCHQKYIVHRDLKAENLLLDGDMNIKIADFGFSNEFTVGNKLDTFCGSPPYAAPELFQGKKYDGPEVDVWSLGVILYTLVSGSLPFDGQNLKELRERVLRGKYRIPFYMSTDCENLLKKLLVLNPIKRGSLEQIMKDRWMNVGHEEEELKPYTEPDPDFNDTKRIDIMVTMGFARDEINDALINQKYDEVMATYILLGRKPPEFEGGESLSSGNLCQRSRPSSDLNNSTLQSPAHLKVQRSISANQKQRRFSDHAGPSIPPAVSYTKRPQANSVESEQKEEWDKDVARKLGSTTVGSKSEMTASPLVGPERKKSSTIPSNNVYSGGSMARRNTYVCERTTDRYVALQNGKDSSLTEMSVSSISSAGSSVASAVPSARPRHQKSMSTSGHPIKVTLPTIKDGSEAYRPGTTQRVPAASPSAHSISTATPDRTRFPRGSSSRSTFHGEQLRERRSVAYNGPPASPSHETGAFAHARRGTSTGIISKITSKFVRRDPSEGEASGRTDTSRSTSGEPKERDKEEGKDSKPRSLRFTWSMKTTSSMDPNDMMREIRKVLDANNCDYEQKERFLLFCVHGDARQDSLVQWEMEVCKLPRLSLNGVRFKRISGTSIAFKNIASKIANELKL
SRPK1, sequence (Q96SB4 whole entry): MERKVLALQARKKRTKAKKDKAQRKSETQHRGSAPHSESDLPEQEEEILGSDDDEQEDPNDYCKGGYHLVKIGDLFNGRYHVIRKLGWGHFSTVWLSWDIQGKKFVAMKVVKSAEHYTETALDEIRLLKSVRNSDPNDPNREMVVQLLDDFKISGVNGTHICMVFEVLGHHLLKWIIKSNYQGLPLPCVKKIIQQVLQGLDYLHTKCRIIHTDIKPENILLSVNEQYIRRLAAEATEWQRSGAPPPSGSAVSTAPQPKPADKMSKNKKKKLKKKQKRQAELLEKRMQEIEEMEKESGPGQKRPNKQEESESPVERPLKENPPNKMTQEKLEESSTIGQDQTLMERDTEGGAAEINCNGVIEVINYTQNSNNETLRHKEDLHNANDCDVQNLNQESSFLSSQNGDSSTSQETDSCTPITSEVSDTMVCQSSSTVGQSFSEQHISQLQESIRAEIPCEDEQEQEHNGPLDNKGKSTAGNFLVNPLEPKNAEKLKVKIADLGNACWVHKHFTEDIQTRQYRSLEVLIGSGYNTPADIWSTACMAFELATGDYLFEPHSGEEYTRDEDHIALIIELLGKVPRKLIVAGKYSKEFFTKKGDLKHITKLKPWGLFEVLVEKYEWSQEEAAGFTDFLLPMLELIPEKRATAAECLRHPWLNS
TRKC, sequence (Q16288 32-839): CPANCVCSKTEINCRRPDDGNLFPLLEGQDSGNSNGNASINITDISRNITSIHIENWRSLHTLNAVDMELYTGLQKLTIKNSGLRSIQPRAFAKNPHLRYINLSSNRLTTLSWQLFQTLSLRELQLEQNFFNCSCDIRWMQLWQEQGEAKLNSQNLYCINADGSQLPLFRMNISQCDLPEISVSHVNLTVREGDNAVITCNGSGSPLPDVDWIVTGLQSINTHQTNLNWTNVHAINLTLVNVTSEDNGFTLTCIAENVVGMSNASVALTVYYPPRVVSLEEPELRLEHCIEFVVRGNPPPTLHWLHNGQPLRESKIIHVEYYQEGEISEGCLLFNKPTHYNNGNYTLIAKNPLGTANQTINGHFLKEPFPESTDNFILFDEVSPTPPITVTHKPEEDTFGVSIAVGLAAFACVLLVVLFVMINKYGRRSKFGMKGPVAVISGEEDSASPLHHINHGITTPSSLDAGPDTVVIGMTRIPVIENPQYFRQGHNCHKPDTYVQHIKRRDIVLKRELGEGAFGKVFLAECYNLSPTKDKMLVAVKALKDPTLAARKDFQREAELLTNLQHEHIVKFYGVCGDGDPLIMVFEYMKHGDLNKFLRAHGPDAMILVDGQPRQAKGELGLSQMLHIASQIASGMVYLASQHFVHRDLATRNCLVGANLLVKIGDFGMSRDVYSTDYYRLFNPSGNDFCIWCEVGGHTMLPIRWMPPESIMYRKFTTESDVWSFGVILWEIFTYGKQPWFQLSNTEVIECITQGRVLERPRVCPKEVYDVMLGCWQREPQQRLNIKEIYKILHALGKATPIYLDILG
PIM-1, sequence (P11309 whole entry): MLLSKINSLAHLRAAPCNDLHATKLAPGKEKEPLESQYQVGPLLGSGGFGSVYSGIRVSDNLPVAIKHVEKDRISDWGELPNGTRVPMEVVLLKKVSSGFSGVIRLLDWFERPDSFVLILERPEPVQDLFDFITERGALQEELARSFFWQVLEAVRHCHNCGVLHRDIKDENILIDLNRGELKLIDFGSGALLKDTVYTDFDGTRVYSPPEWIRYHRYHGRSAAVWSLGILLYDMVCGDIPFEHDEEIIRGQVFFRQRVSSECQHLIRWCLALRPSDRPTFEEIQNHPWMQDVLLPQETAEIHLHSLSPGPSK

| SMILES | inhibition at 0.1 µM [1] [%] | inhibition at 1 µM [1] [%] | inhibition at 0.1 µM [2] [%] | inhibition at 1 µM [2] [%] | inhibition at 0.1 µM [3] [%] | inhibition at 1 µM [3] [%] | inhibition at 0.1 µM [4] [%] | inhibition at 1 µM [4] [%] | inhibition at 0.1 µM [5] [%] | inhibition at 1 µM [5] [%] | inhibition at 0.1 µM [6] [%] | inhibition at 1 µM [6] [%] | inhibition at 0.1 µM [7] [%] | inhibition at 1 µM [7] [%] | inhibition at 0.1 µM [8] [%] | inhibition at 1 µM [8] [%] | inhibition at 0.1 µM [9] [%] | inhibition at 1 µM [9] [%] | inhibition at 0.1 µM [10] [%] | inhibition at 1 µM [10] [%] | other results |
| --- | --- | --- | --- | --- | --- | --- | --- | --- | --- | --- | --- | --- | --- | --- | --- | --- | --- | --- | --- | --- | --- |
| COc1cc(-c2cc(-c3ccc(N4CCNCC4)cc3)cnc2C)cc(OC)c1OC [Compound 10, 1-(4-(6-methyl-5-(3,4,5-trimethoxyphenyl)pyridin-3-yl)phenyl)piperazine] | 0 | 2 | 1 | -2 | 1 | 1 | 0 | 0 | 3 | 5 | -1 | 0 | -3 | 2 | 4 | 4 | 1 | 1 | 4 | 5 | inhibition at 0.1 µM [11]: 1%; inhibition at 1 µM [11]: 2%; inhibition at 0.1 µM [12]: 2%; inhibition at 1 µM [12]: 2%; inhibition at 0.1 µM [13]: 1%; inhibition at 1 µM [13]: 0% |
| COc1cc(-c2cc(-c3ccc(N4CCNCC4)cc3)cnc2N)cc(OC)c1OC [Compound 15, 5-(4-(piperazin-1-yl)phenyl)-3-(3,4,5-trimethoxyphenyl)pyridin-2-amine] | 3 | 31 | 3 | 20 | 5 | 7 | 2 | 6 | 2 | 5 | 2 | 5 | 1 | 3 | 3 | 3 | 1 | 2 | 1 | 1 | inhibition at 0.1 µM [11]: 1%; inhibition at 1 µM [11]: 0%; inhibition at 0.1 µM [12]: 1%; inhibition at 1 µM [12]: -1%; inhibition at 0.1 µM [13]: 0%; inhibition at 1 µM [13]: -1% |
